Tests used:
[1] = tested on: homologous PCA reaction; test: Homologous passive cutaneous anaphylaxis (PCA) reaction; assay type: in vivo, rat (SD (Sprague-Dawley) strain); conditions: rat; for Inhibition effect of PCA reaction: oral
Description: Anti-egg albumin rat serum in amount of 0.1 ml was intracutaneously injected to the shaved back of a mail rat of SD (Sprague-Dawley) strain weighing 200±30 g. The egg-albumin as antigen in amount of 5 mg/Kg were intravenously injected, together with 40 mg/Kg of dye (Evans blue) 24 hours after antiserum injection. The test materials were given at the respective times before antigen injection as 5% suspension in gum arabic in the case of oral administration (p. o.), while as a solution in physiological salt solution in the case of the intravenous injection (i. v.). The rat was sacrificed 30 minutes after the injection of the antigen, and the skin was removed. The amount of the dye leaked at the reaction locus was measured by extraction method according to Katayama et al.; Microbiol. Immunol. 22, 89-101 (1978), to determine the inhibiting rate on the homologous PCA reaction. There were elected, as the control, cromoglycate and ethyl 6,7-dihydro-6-methyl-8H-pyrano[3,2-g]chromone-2-carboxylate which are known in the art.
Regarding 6,7-dihydro-6,8,8,10-tetramethyl-8H-pyrano[3,2-g] chromone-2-carboxylic acid of this invention, there were determined, in the same manner, inhibition effect of PCA reaction when oral administration was carried out.

[2] = cited from earlier work
[3] = tested on: actively sensitized rat peritoneal mast cells; test: Histamine release from actively sensitized rat peritoneal mast cells mediated by antigen-antibody reaction; assay type: cell-based, rat (SD strain); conditions: Mast cell, egg-albumine 10 μg/ml, 37° C., read-out: Inhibition rate of histamine release
Description: (2) Histamine release from actively sensitized rat peritoneal mast cells mediated by antigen-antibody reaction
A male rate of SD strain weighing 200-400 g was used in this experiment. The sensitization of rats was performed by the method according to Kusner et al.; J. Pharmcol. & Exper. Ther, 184, 41-44 (1973). The mast cells were isolated 14 days after the sensitization by the method according to Johnson, et al.; Am. J. Physiol. 216, 453-459 (1969). The number of the mast cells was adjusted to 2×10^5 /ml. Each one milliliter of the cell suspension was divisionally poured into siliconized test tubes, and placed in an incubator adjusted to 37° C. The egg-albumine, as antigen, was added thereto at the final concentration of 10 μg/ml. At the same time of the addition of antigen, there is added sodium 6,7-dihydro-6,8,8,10-tetramethyl-8H-pyrano[3,2-g] chromone-2-carboxylate according to this invention in the respective concentrations.
The amount of histamine released from the mast cells was determined fluorimetrically according to Suzuki's method [Keio Igaku, 50, 263-270 (1973) Japan].

Cc1c2c(cc3c(=O)cc(C(=O)O)oc13)C(C)CC(C)(C)O2 (stereo not shown) [6,7-Dihydro-6,8,8,10-tetramethyl-8H-pyrano [3,2-g] chromone-2-carboxylic acid]
Inhibition effect of PCA reaction, dose dependence ([1]; oral administration): dose-dependent inhibiting effect | Time of administration before antigen with the most remarkable inhibition effect of PCA reaction ([1]; oral administration): 15 to 30 min | Inhibition effect of PCA reaction ([1]; 1 mg/Kg, before 5 minutes): 15.1% | Inhibition effect of PCA reaction ([1]; 3 mg/Kg, before 5 minutes): 54.8% | Inhibition effect of PCA reaction ([1]; 10 mg/Kg, before 2 minutes): 44.1% | Inhibition effect of PCA reaction ([1]; 10 mg/Kg, before 5 minutes (dose series)): 78.5% | Inhibition effect of PCA reaction ([1]; 10 mg/Kg, before 5 minutes (time-course series)): 62.2% | Inhibition effect of PCA reaction ([1]; 10 mg/Kg, before 15 minutes): 82.0% | Inhibition effect of PCA reaction ([1]; 10 mg/Kg, before 30 minutes): 84.3% | Inhibition effect of PCA reaction ([1]; 10 mg/Kg, before 60 minutes): 54.3% | Inhibition effect of PCA reaction ([1]; 30 mg/Kg, before 5 minutes): 90.3%

O=C(O)c1cc(=O)c2c(OCC(O)COc3cccc4oc(C(=O)O)cc(=O)c34)cccc2o1 [Chromoglycate, reference compound]
Inhibition rate of PCA reaction ([1]; 6 mg/Kg i.v., at the same time): 88.6% | Inhibition rate of PCA reaction ([1]; 20 mg/Kg p.o., before one hour): 0% | Effect on oral administration [2]: not effective when it is orally administered

CCOC(=O)c1cc(=O)c2c(C)c3c(c(C)c2o1)OC(C)(C)C(C)C3 (stereo not shown) [Ethyl 6,7-dihydro-5,7,8,8,10-pentamethyl-8H-pyrano[3,2-g]chromone-2-carboxylate]
Inhibition rate of PCA reaction ([1]; 20 mg/Kg p.o., before one hour): 47.9%

CCOC(=O)c1cc(=O)c2cc3c(c(C)c2o1)OC(C)(C)CC3C (stereo not shown) [Ethyl 6,7-dihydro-6,8,8,10-tetramethyl-8H-pyrano [3,2-g] chromone-2-carboxylate]
Inhibition rate of PCA reaction ([1]; 20 mg/Kg p.o., before one hour): 63.8%

CCOC(=O)c1cc(=O)c2c(C)c3c(c(CC)c2o1)OC(C)(C)CC3C (stereo not shown) [Ethyl 6,7-dihydro-10-ethyl-5,6,8,8-tetramethyl-8H-pyrano[3,2-g]chromone-2-carboxylate]
Inhibition rate of PCA reaction ([1]; 20 mg/Kg p.o., before one hour): 64.4%

CCOC(=O)c1cc(=O)c2cc3c(c(OC)c2o1)OC(C)(C)CC3C (stereo not shown) [Ethyl 6,7-dihydro-10-methoxy-6,8,8-trimethyl-8H-pyrano [3,2-g] chromone-2-carboxylate]
Inhibition rate of PCA reaction ([1]; 20 mg/Kg p.o., before one hour): 62.2%

Cc1c2c(cc3c(=O)cc(C(=O)O)oc13)C(C)CC(C)(C)O2 (stereo not shown) [Sodium 6,7-dihydro-6,8,8,10-tetramethyl-8H-pyrano [3,2-g] chromone-2-carboxylate]
Inhibition rate of PCA reaction ([1]; 0.4 mg/Kg i.v., at the same time): 65.2% | Inhibition rate of PCA reaction ([1]; 20 mg/Kg p.o., before one hour): 64.9% | inhibition at 0.2 µM ([3]; 0.2 μM): 48.2% | inhibition at 1 µM ([3]; 1.0 μM): 66.1% | inhibition at 2 µM ([3]; 2.0 μM): 73.2% | inhibition at 10 µM ([3]; 10.0 μM): 60.7%

CCOC(=O)c1cc(=O)c2cc3c(cc2o1)OCCC3C (stereo not shown) [ethyl 6,7-dihydro-6-methyl-8H-pyrano[3,2-g]chromone-2-carboxylate, reference compound]
Inhibition rate of PCA reaction ([1]; 20 mg/Kg p.o., before one hour): 23.7%
